Experimental data from patent US20050245541A1, “Methods for treating alcoholism” (priority 2004, published 2005).
Entries after “also recorded” stand apart in the source; their conditions may differ.

Key:
[1] = tested on: rat model of alcohol self-administration; assay: Ethanol self-administration (operant lever press) in trained rats; format: in vivo, rat (male Wistar)
Experimental: FIG. 1B is a bar graph showing the amount of ethanol (EtOH) consumed in g/kg at various doses of naltrexone. Based on the number of lever press responses following a dose of naltrexone (FIG. 1A), the corresponding amount of absolute ethanol consumed (g/kg) was calculated. To calculate the amount of absolute ethanol consumed, divide the number of lever presses by 2 to obtain the number of earned reinforcements. From this number, the total volume of the alcohol “cocktail” (10% EtOH in 0.04% saccharine solution) consumed was obtained. The grams of absolute EtOH consumed=the total “cocktail” volume consumed×10% EtOH×0.793 g EtOH/mL. The amount of ethanol (g) divided by the animal's weight (kg) gives the amount of absolute ethanol consumed in g/kg.
Male Wistar rats (starting weight of 200±30 grams; Charles River Laboratories, Mass.) were individually housed with free access to food and water. The vivarium was maintained within the temperature and relative humidity range specified within the Guide for Care and Use of Laboratory Animals (NIH Publication No. 86-23, revised 1985). These conditions were recorded once daily throughout the study. The vivarium was on a 12 hour light/dark schedule. All animal studies were reviewed and approved by the Alkermes' IACUC (protocol #04-2A).
Animals were trained daily in an operant chamber to press a lever to receive access to an ethanol cocktail as a reinforcer using a saccharin fading procedure. […] The final ethanol cocktail contained 10% ethanol in 0.04% saccharine. Each session lasted 30 minutes, during which the rat could press the lever twice to gain access to 0.1 mL of the ethanol cocktail. The operant chamber (Coulbourne Instruments, Allentown, Pa.) is a computer-controlled automated system which recorded the number of lever presses completed by a rat. At the end of the training period (6-8 weeks), rats which consistently drank a sufficient quantity of ethanol to produce a pharmacological effect (minimum intake of 0.6 g/kg/hour) were selected to participate in the drug studies. These trained rats were used repeatedly throughout these studies to control for intra-subject variability. All drugs were administered acutely with a minimum of a 2 day drug washout period.
Naltrexone was prepared daily in 0.9% saline and administered subcutaneously (SC). The dopamine D2 partial agonist aripiprazole was suspended in 3% carboxymethyl cellulose; a total volume of 1 mL/kg of this suspension was delivered orally (PO) to the rat using a gavage tube. See Table 1 for source and lot numbers of the drugs tested.
The ability of naltrexone to reduce ethanol drinking (i.e., decrease the number of lever presses) was assessed in this animal model of self administration of ethanol. Thirty minutes after the administration of naltrexone (0-6 mg/kg, SC), the animals were placed in the operant chamber and allowed to lever press for the 10% ethanol cocktail. The total number of lever presses was recorded over the 30 minute test session. The rats were repeatedly dosed with naltrexone to generate a dose-response curve for each individual animal.
The dopamine D2 partial agonist aripiprazole was coadministered with naltrexone to determine if it affected naltrexone's ability to decease ethanol drinking. The dose of naltrexone used in this series of studies was the ED50 (that is, the dose of naltrexone that produced a 50% decrease in lever responses for ethanol as determined from the dose-response study). This dose allows one to determine if the coadministered drugs impaired or enhanced naltrexone's effect on ethanol drinking. Aripiprazole was administered orally 30 minutes prior to a naltrexone injection (SC) (i.e., 60 minutes prior to the beginning of the ethanol drinking test session). The number of lever presses for the ethanol cocktail was recorded at the end of the 30 minute session.

[2] = tested on: audiogenic-induced convulsions in mice exhibiting symptoms of alcohol withdrawal; assay: Audiogenic-induced convulsions in mouse model of alcohol withdrawal; format: in vivo, mouse (male C57BL/6); settings: for Withdrawal Rating (mean ± sem), behavioral response scale of 1-4: mouse
Experimental: Male C57BL/6 mice (starting weight of 15-18 grams; Charles River Laboratories, Mass.) were housed in groups of 4 on a ventilated rack with free access to food and water. The vivarium was maintained within the temperature and relative humidity range specified within the Guide for Care and Use of Laboratory Animals (NIH Publication No. 86-23, revised 1985). These conditions were recorded once daily throughout the study. The vivarium was on a 12 hour light/dark schedule. All animal studies were reviewed and approved by the Alkermes' IACUC (protocol #04-8A).
Persistent high alcohol levels in blood and brain are required to develop withdrawal symptoms following termination of alcohol availability. […] Alcohol is provided in a nutritionally balanced liquid diet. This diet becomes the animal's sole source of food and water. While the experimenter controls the duration of the alcohol exposure, the animal determines the dose and pattern of consumption.
After a 3-5 day acclimation period, the mice were individually identified (tail mark with permanent marker) and weighed. The normal rodent chow and water was replaced with a nutritionally complete control liquid diet (Bio-Serv, Lieber-DeCarli diet) for a 5-7 day habituation period. Acquisition of EtOH drinking in mice involved a gradually escalating ethanol concentration procedure. Ethanol treated animals received an EtOH liquid diet containing 1.5% EtOH for 5-7 days. The EtOH concentration was increased every 5-7 days to a final concentration of 6.7%. The liquid diet was administered in a screw capped graduated 100 mL liquid feeding tube mounted inside the cage. The volume of remaining diet was measured and the diet changed daily. The mice were observed daily and weighed every week to assure adequate EtOH diet intake.
Development of alcohol withdrawal symptoms requires a cycle of alcohol/no alcohol. The animals were given a period of 14 days of the EtOH diet (6.7%), 2 days of control diet (balanced isocalorically with maltose dextrin replacing the EtOH) and 5-6 days of the EtOH diet.
One of the hallmark symptoms of alcohol withdrawal in mice is the occurrence of convulsions. These can occur spontaneously, from handling the animal, from a sudden loud sound (audiogenic) or from subthreshold doses of chemical convulsants. For this series of studies, the occurrence of audiogenic-induced convulsions was used as a measure of alcohol withdrawal. […]
Mice from each cage were randomly assigned to one of three groups, vehicle+saline, aripiprazole (10 mg/kg, PO)+saline, or aripiprazole (10 mg/kg, PO)+naltrexone (3 mg/kg, IP). […] Each mouse's behavior in response to the bell was observed by two investigators and the agreed upon results were recorded.

[3] = tested on: rat model of alcohol self-administration; assay: Ethanol self-administration (operant lever press) in trained rats; format: in vivo, rat (male Wistar); settings: naltrexone 0.5 mg/kg sc, 0.1% saccharine solution substituted for ethanol cocktail

Row | SMILES | Number of Lever Presses (mean ± sem) ([1]; aripiprazole 0.0 mg/kg PO (vehicle) + naltrexone 0.1 mg/kg SC, rat) | Decrease in lever presses versus baseline and vehicle control (significance) ([1]; lowest dose of naltrexone tested, 0.05 mg/kg) | Decrease in the number of lever presses compared to baseline ([1]; naltrexone alone group of the aripiprazole interaction study (naltrexone 0.1 mg/kg SC per Table 4)) [%] | Difference between naltrexone and non-naltrexone groups on the audiogenic convulsion test ([2]; naltrexone 3 mg/kg coadministered with aripiprazole 10 mg/kg PO) | Specificity of decrease in drinking: lever pressing for saccharine versus ethanol cocktail [3] | Number of Lever Presses (mean ± sem) ([1]; aripiprazole 0.1 mg/kg PO + naltrexone 0.1 mg/kg SC, rat) | Number of Lever Presses (mean ± sem) ([1]; aripiprazole 1.0 mg/kg PO + naltrexone 0.1 mg/kg SC, rat) | Number of Lever Presses (mean ± sem) ([1]; aripiprazole 10.0 mg/kg PO + naltrexone 0.1 mg/kg SC, rat) | Number of Lever Presses (mean ± sem) ([1]; aripiprazole 10.0 mg/kg PO, no naltrexone, rat) | Ethanol-motivated lever presses, combination of naltrexone and aripiprazole versus naltrexone alone ([1]; aripiprazole 0.1-10 mg/kg PO + naltrexone SC, rat) | Withdrawal Rating (mean ± sem), behavioral response scale of 1-4 ([2]; aripiprazole 10 mg/kg PO + naltrexone 3 mg/kg) | Withdrawal Rating (mean ± sem), behavioral response scale of 1-4 ([2]; aripiprazole 10 mg/kg PO + saline) | Anticonvulsant effect on the audiogenic convulsion test ([2]; aripiprazole 10 mg/kg PO with or without naltrexone, p=0.004)
1 | O=C1CC[C@@]2(O)[C@H]3Cc4ccc(O)c5c4[C@@]2(CCN3CC2CC2)[C@H]1O5 [Naltrexone] | 62 ± 13 | no significant decrease | 47.54 | no statistical differences | to the same degree as under the non-drug baseline condition; also recorded: selective for decreasing ethanol drinking in rats (but not saccharine drinking) | – | – | – | – | – | – | – | –
2 | O=C1CCc2ccc(OCCCCN3CCN(c4cccc(Cl)c4Cl)CC3)cc2N1 [Aripiprazole, 7-{4-[4-(2,3-dichlorophenyl)-1-piperazinyl]-butoxy}-3-,4-dihydro carbostyril] | – | – | – | – | – | 42 ± 11 | 45 ± 8 | 37 ± 7 | 118 ± 26 | no statistical difference | 1.0 ± 0.0 | 1.0 ± 0.0 | significant drug effect (anticonvulsant effect)
